Columns and labels:
[1] = Solubility test of oxygen scavenger candidates (solvent added for a final 1 M, visual inspection of remaining solid); assay type: physicochemical; conditions: stated as substantially lower than 1 M
Procedure: In other cases, solubility tests with acetonitrile instead of propylene carbonate was performed.
In the case that solids remained after addition of solvent and vigorous stirring, the solubility of a candidate is assessed by visual inspection of the amount of remaining compound versus the amount of compound prior to solvent addition. In the case of a commercially available candidate dissolved in tetrahydrofuran (THF), the THF is removed under reduced pressure prior to addition of solvent.

[2] = Profiling: penetration of oxygen through candidate solution, measured with an OX10 oxygen microsensor; conditions: 0.1 M solution in propylene carbonate
Procedure: The penetration of oxygen through the solution of the candidates was determined using an OX10 oxygen microsensor from Unisense A/S in conjunction with a microprofiling laboratory stand.
A small capillary, cautiously filled with candidate solution in order to avoid bulk oxidation, was placed underneath the tip of the oxygen microsensor. The microprofiling stand was remotely controlled by the bundled software in order to move the microelectrode tip with five to ten micrometers between each concentration measurement. The microelectrode was calibrated prior to each candidate measurement using air-bubbled demineralised water and oxygen-free alkaline ascorbic acid solution.
The microsensor was used to profile oxygen-free alkaline ascorbic acid solution prior to and after measurement of each candidate to 1) ensure that physical damage during candidate measurement could be detected and to 2) provide baseline signal for normalisation of candidate profiles.
Each candidate profile was subtracted the baseline signal and normalised with respect to surface oxygen concentration in order to assess the candidate oxygen removal efficiency. A normalised signal of unity equals surface oxygen concentration and a normalised signal of 0.01 equals a dissolved oxygen concentration of 1 % of surface concentration.

| Compound | Concentration in propylene carbonate (PC) [1] | Oxygen profile depth [2] |
| --- | --- | --- |
| CC(C)(C)P(CCCC[N+]1(C)CCOCC1)C(C)(C)C.[Br-] [Candidate 10, N-[4-(di-tert-butylphosphino)butyl]-N-methylmorpholinium bromide] | lower than 1 M |  |
| c1ccc(Pc2ccccc2)cc1 [Candidate 1, Diphenylphosphine] |  | ca. 75 µm |

— patent EP3076168A1, “An electrochemical sensor” (Unisense Environment A/S, priority 2015, dated 2016)
